Molecular target: T1, human TPO receptor (hTPOR) (Homo sapiens, UniProt P40238)
T1 construct: expressed in transfected cells; host or cells: BaF-B03 (murine IL-3 dependent cell line)
T1 sequence (P40238 26-635): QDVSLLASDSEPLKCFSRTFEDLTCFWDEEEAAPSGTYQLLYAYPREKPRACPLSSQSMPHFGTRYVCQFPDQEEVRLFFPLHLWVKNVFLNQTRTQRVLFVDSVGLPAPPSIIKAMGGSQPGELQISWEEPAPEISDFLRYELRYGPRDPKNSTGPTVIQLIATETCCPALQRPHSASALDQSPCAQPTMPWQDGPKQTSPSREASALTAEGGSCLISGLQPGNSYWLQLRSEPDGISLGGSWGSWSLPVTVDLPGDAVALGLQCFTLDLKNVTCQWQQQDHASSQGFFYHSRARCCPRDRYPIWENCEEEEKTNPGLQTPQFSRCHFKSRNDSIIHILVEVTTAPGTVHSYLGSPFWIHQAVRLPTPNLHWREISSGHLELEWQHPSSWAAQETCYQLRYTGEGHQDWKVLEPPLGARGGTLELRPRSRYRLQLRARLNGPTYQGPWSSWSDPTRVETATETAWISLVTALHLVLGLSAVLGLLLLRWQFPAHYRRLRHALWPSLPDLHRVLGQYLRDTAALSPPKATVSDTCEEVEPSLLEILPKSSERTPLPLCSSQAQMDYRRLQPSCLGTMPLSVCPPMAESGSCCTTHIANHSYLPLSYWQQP
Assay: Thrombopoietic activity: proliferation of TPO dependent BaF/hTPOR cells (WST-1, absorbance at 450 nm)
Assay type: cell-based
Details: 20 h + 4 h WST-1, ED50 = half concentration of the concentration showing the maximum thrombopoietic activity
Summary of the method: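 Proliferation read-out: WST-1 absorbance at 450 nm after 20 h compound exposure plus 4 h reagent, using IL-3-deprived BaF/hTPOR cells (5×10^4 per well) dependent on human TPO receptor signalling. ED50 defined as half the concentration producing maximal activity.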

EC50 (Table 1)	EC50 (Table 2)	Compound
3.2 nM		CCCCCCCCCC(OC)c1cccc(-c2csc(NC(=O)c3cc(F)c(/C=C(\C)C(=O)O)c(F)c3)n2)c1OC (centres unmarked) [Compound B354, (E)-3-(2,6-difluoro-4-{4-[2-methyloxy-3-(1-methyloxydecyl)phenyl]thiazol-2-ylcarbamoyl}phenyl)-2-methylacrylic acid]
3.3 nM		CCCCCCCCCCC(OC)c1cccc(-c2csc(NC(=O)c3cc(F)c(/C=C(\C)C(=O)O)c(F)c3)n2)c1OC (centres unmarked) [Compound B355, (E)-3-(2,6-difluoro-4-{4-[2-methyloxy-3-(1-methyloxyundecyl)phenyl]thiazol-2-ylcarbamoyl}phenyl)-2-methylacrylic acid]
23.2 nM	23.2 nM	CCCOCCCc1cccc(-c2csc(NC(=O)c3cc(F)c(/C=C(\C)C(=O)O)c(F)c3)n2)c1OC [Compound B380, (E)-3-(2,6-difluoro-4-{4-[2-methyloxy-3-(3-propyloxypropyl)phenyl]thiazol-2-ylcarbamoyl}phenyl)-2-methylacrylic acid]
2.52 nM		COc1c(COCCCC2CCCCC2)cccc1-c1csc(NC(=O)c2cc(F)c(/C=C(\C)C(=O)O)c(F)c2)n1 [Compound B397]
6.3 nM		CCCCOC(CC)c1cccc(-c2csc(NC(=O)c3cc(F)c(/C=C(\C)C(=O)O)c(F)c3)n2)c1OC (centres unmarked) [Compound B418, (E)-3-(4-{4-[3-(1-butyloxypropyl)-2-methyloxyphenyl]thiazol-2-ylcarbamoyl}-2,6-difluorophenyl)-2-methylacrylic acid]
14.6 nM		CCCCOCCCc1cccc(-c2csc(NC(=O)c3cc(F)c(/C=C(\C)C(=O)O)c(F)c3)n2)c1OC [Compound B419, (E)-3-(4-{4-[3-(3-butyloxypropyl)-2-methyloxyphenyl]thiazol-2-ylcarbamoyl}-2,6-difluorophenyl)-2-methylacrylic acid]
2.01 nM		CCCCOC(c1cccc(-c2csc(NC(=O)c3cc(F)c(/C=C(\C)C(=O)O)c(F)c3)n2)c1OC)C(C)(C)C (centres unmarked) [Compound B425, (E)-3-(4-{4-[3-(1-butyloxy-2,2-dimethylpropyl)-2-methyloxyphenyl]thiazol-2-ylcarbamoyl}-2,6-difluorophenyl)-2-methylacrylic acid]
15.9 nM		COc1c(CCCOCC(C)(C)C)cccc1-c1csc(NC(=O)c2cc(F)c(/C=C(\C)C(=O)O)c(F)c2)n1 [Compound B488]
12 nM		CCCCCCOCCCc1cccc(-c2csc(NC(=O)c3cc(F)c(/C=C(\C)C(=O)O)c(F)c3)n2)c1OC [Compound B505, (E)-3-(2,6-difluoro-4-{4-[3-(3-hexyloxypropyl)-2-methyloxyphenyl]thiazol-2-ylcarbamoyl}phenyl)-2-methylacrylic acid]
16.9 nM		COc1c(CCCOCCC(C)(C)C)cccc1-c1csc(NC(=O)c2cc(F)c(/C=C(\C)C(=O)O)c(F)c2)n1 [Compound B521, (E)-3-[4-(4-{3-[3-(3,3-dimethylbutyloxy)propyl]-2-methyloxyphenyl}thiazol-2-ylcarbamoyl}-2,6-difluorophenyl)-2-methylacrylic acid]
19.9 nM		COc1c(-c2csc(NC(=O)c3cc(Cl)c(/C=C(\C)C(=O)O)c(Cl)c3)n2)cccc1C(CC(C)(C)C)OC (centres unmarked) [Compound B1054, (E)-3-(2,6-dichloro-4-{4-[2-methyloxy-3-(1-methyloxy-3,3-dimethylbutyl)phenyl]thiazol-2-ylcarbamoyl}phenyl)-2-methylacrylic acid]
3.2 nM		CCCCCCCCCC(OC)c1cccc(-c2csc(NC(=O)c3cc(Cl)c(/C=C(\C)C(=O)O)c(Cl)c3)n2)c1OC (centres unmarked) [Compound B1059, (E)-3-(2,6-dichloro-4-{4-[2-methyloxy-3-(1-methyloxydecyl)phenyl]thiazol-2-ylcarbamoyl}phenyl)-2-methylacrylic acid]
3.9 nM		CCCCCCCCCCC(OC)c1cccc(-c2csc(NC(=O)c3cc(Cl)c(/C=C(\C)C(=O)O)c(Cl)c3)n2)c1OC (centres unmarked) [Compound B1060, (E)-3-(2,6-dichloro-4-{4-[2-methyloxy-3-(1-methyloxy-undecyl)phenyl]thiazol-2-ylcarbamoyl}phenyl)-2-methylacrylic acid]
8.25 nM		CCCCOC(C)c1cccc(-c2csc(NC(=O)c3cc(Cl)c(/C=C(\C)C(=O)O)c(Cl)c3)n2)c1OC (centres unmarked) [Compound B1122, (E)-3-(4-{4-[3-(1-butyloxyethyl)-2-methyloxyphenyl]thiazol-2-ylcarbamoyl}-2,6-dichlorophenyl)-2-methylacrylic acid]
15.8 nM		CCCCOCCCc1cccc(-c2csc(NC(=O)c3cc(Cl)c(/C=C(\C)C(=O)O)c(Cl)c3)n2)c1OC [Compound B1124, (E)-3-(4-{4-[3-(3-butyloxypropyl)-2-methyloxyphenyl]thiazol-2-ylcarbamoyl}-2,6-dichlorophenyl)-2-methylacrylic acid]
6.5 nM		CCCCCCCCCC(OC)c1cccc(-c2csc(NC(=O)c3cc(Cl)c(/C=C(\OC)C(=O)O)c(Cl)c3)n2)c1OC (centres unmarked) [Compound B1437, (Z)-3-(2,6-dichloro-4-{4-[2-methyloxy-3-(1-methyloxydecyl)phenyl]thiazol-2-ylcarbamoyl}phenyl)-2-methyloxyacrylic acid]
6.3 nM		CCCCCCCCCCC(OC)c1cccc(-c2csc(NC(=O)c3cc(Cl)c(/C=C(\OC)C(=O)O)c(Cl)c3)n2)c1OC (centres unmarked) [Compound B1438, (Z)-3-(2,6-dichloro-4-{4-[2-methyloxy-3-(1-methyloxyundecyl)phenyl]thiazol-2-ylcarbamoyl}phenyl)-2-methyloxyacrylic acid]
17.3 nM		CCCOCCCC(OC)c1cccc(-c2csc(NC(=O)c3cc(F)c(/C=C(\C)C(=O)O)c(F)c3)n2)c1OC (centres unmarked) [Compound B1799, (E)-3-(2,6-difluoro-4-{4-[2-methyloxy-3-(1-methyloxy-4-propyloxybutyl)phenyl]thiazol-2-ylcarbamoyl}phenyl)-2-methylacrylic acid]
19 nM		COc1c(CCCOCC(C)(C)C)cccc1-c1csc(NC(=O)c2cc(Cl)c(/C=C(\C)C(=O)O)c(Cl)c2)n1 [Compound B1833, (E)-3-[2,6-dichloro-4-(4-{3-[3-(2,2-dimethylpropyloxy)propyl)-2-methyloxyphenyl]thiazol-2-ylcarbamoyl}phenyl)-2-methylacrylic acid]
	21 nM	CCCCOCCc1cccc(-c2csc(NC(=O)c3cc(Cl)c(/C=C(\C)C(=O)O)c(Cl)c3)n2)c1OC [Compound B1836, (E)-3-(4-{4-[3-(2-butyloxyethyl)-2-methyloxyphenyl]thiazol-2-ylcarbamoyl}-2,6-dichlorophenyl)-2-methylacrylic acid]
15.9 nM		CCC(CC)COCCCc1cccc(-c2csc(NC(=O)c3cc(F)c(/C=C(\C)C(=O)O)c(F)c3)n2)c1OC [Compound B1848, (E)-3-[4-(4-{3-[3-(2-ethylbutyloxy)propyl]-2-methyloxyphenyl}thiazol-2-ylcarbamoyl)-2,6-difluorophenyl]-2-methylacrylic acid]
	22.5 nM	CCC(CC)COCCCc1cccc(-c2csc(NC(=O)c3cc(Cl)c(/C=C(\C)C(=O)O)c(Cl)c3)n2)c1OC [Compound B1849, (E)-3-[2,6-dicholoro-4-(4-{3-[3-(2-ethylbutyloxy)propyl]-2-methyloxyphenyl}thiazol-2-ylcarbamoyl)phenyl]-2-methylacrylic acid]
16.8 nM		COc1c(CCCOCCC(C)C)cccc1-c1csc(NC(=O)c2cc(F)c(/C=C(\C)C(=O)O)c(F)c2)n1 [Compound B1851, (E)-3-[2,6-difluoro-4-(4-{2-methyloxy-3-[3-(3-methylbutyloxy)propyl]phenyl}thiazol-2-ylcarbamoyl)phenyl]-2-methylacrylic acid]
16.5 nM		COc1c(CCCOCCC(C)C)cccc1-c1csc(NC(=O)c2cc(Cl)c(/C=C(\C)C(=O)O)c(Cl)c2)n1 [Compound B1852, (E)-3-[2,6-dichloro-4-(4-{2-methyloxy-3-[3-(3-methylbutyloxy)propyl]phenyl}thiazol-2-ylcarbamoyl)phenyl]-2-methylacrylic acid]
	24.4 nM	COc1c(CCCOCC2CCC2)cccc1-c1csc(NC(=O)c2cc(F)c(/C=C(\C)C(=O)O)c(F)c2)n1 [Compound B1854, (E)-3-(4-{4-[3-(3-cyclobutylmethyloxypropyl)-2-methyloxyphenyl]thiazol-2-ylcarbamoyl}-2,6-difluorophenyl)-2-methylacrylic acid]

Compound	EC50 (Table 1)	EC50 (Table 2)
CCCCCOC(c1cccc(-c2csc(NC(=O)c3cc(F)c(/C=C(\C)C(=O)O)c(F)c3)n2)c1OC)C1CCCCC1 (centres unmarked) [Compound B484]	1.29 nM	
CCCCCCOC(c1cccc(-c2csc(NC(=O)c3cc(F)c(/C=C(\C)C(=O)O)c(F)c3)n2)c1OC)C1CCCCC1 (centres unmarked) [Compound B519]	1.03 nM	
CCCOC(c1cccc(-c2csc(NC(=O)c3cc(Cl)c(/C=C(\C)C(=O)O)c(Cl)c3)n2)c1OC)C1CCCCC1 (centres unmarked) [Compound B1102]	2.86 nM	

From patent US7601746B2 (Shionogi & Co., Ltd., priority 2003, dated 2009)
